According to patent publication US8476273B2, “Small molecule inhibitors of Lck SH2 domain binding” (University of Maryland, Baltimore, priority 2007, dated 2013):
“Also recorded” adds a separate entry of the source.

Assays:
Lck SH2 domain = biological target: T1, Lck SH2 domain (Homo sapiens, UniProt P06239); assay: solid phase EIA of Lck SH2 domain binding to CD3 ζ chain ITAM peptide; conditions: screening concentration of 100 μM
T1 construct: GST
From the text: Compounds have been identified that inhibited Lck SH2 domain binding to the CD3 ζ chain ITAM peptide using a combination of CADD and biological assays using a solid phase EIA assay developed in our laboratory.
(§1) Lck kinase is a member of Src family kinases including Fyn, Lyn, and Hck that have SH2 domains sharing significant sequence homologies at βD5, βE4, EF1 and βG4 sites where these amino acids form the pY+3 binding pocket. Accordingly, it was important to test inhibition specificities of compounds against SH2 domains of these Src kinases and other signal transduction molecules involved in TCR proximal signaling. All 42 compounds identified in the above assay were subjected to specificity screening using a solid phase EIA assay using 7 different GST-SH2 domains (Lck, Fyn, Lyn, Hck, Src, She and Grb2).
(§2) All the compounds that had >40% inhibitory effect in the cellular assays were tested in the solid phase specificity screening assay and three compounds, 72, 87 and 241 were identified to be specific to Lck. Due to the fact that these compounds were specific to Lck SH2 domain, in vitro and in vivo assays described below were conducted using these 3 compounds.

[1] = system: GST-SH2 domains (Fyn, Lyn, Hck, Src, She and Grb2); assay: solid phase EIA specificity screening with other GST-SH2 domains; format: binding; conditions: screening concentration of 100 μM
From the text: as §1, §2

[2] = system: Mtb-induced adjuvant arthritis; assay: Mtb-induced adjuvant arthritis (AA) in Lewis rats; format: in vivo, Lewis rat
Procedure: FIG. 4A is a line graph showing the effect of SMILS in a preventive treatment regimen. […] Mtb was injected on day 0. ▭—Untreated group, ◯—SMILS treated group.
FIG. 4B is a line graph showing the effect of SMILS in therapeutic-1 treatment regimen. […] Mtb was injected on day 0. ⋄—Untreated group, ◯—SMILS treated group (3 mg/kg body weight), ●—SMILS (1 mg/kg body weight) treatment group.
FIG. 4C is a line graph showing the effects of SMILS in therapeutic-2 treatment regimen. […] Mtb was injected on day 0. ⋄—Untreated group, ●—SMILS (3 mg/kg body weight) treatment group.
Pilot experiments using Lewis rats were carried out to assess the effect of SMILS on Mtb-induced AA. The initial experiments described here were carried out using compound 241. Experiments were carried out to test the efficacy of SMILS (3 mg/kg body weight injected i.p.) in three treatment regimens: i.e., preventive: (SMILS injected at −3, −2, −1, 0 days before Mtb injection); therapeutic 1: at the time of AA induction (SMILS injected at 0, 1, 2, 3, 4 days after Mtb injection); and therapeutic 2: at the time of clinical symptom appearance (SMILS injected at 10, 11, 12, 13 days after Mtb injection).
In addition to the visual scoring of the joint swelling, histological examinations of joints from all 4 paws collected at the peak of the disease were carried out.

T1 sequence (P06239 127-224 limits assumed): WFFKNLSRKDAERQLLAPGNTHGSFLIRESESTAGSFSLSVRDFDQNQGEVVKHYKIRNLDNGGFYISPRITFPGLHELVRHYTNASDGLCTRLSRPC

Question: For `O=C(O)COc1ccccc1/C=N/NC(=O)c1cc(Cl)ccc1O` [Compound 72], which “specificity towards Lck SH2 domain” value (Lck SH2 domain) is on record?
Answer: showed specificities towards Lck SH2 domain

Question: What about the “inhibitory activity against the other SH2 domains” value [1] of the same compound?
Answer: little or no inhibitory activity

Question: What does the source list for `O=C(NCCSc1ccccc1)c1cncc(Br)c1` [Compound 241]?
Answer: specificity towards Lck SH2 domain (Lck SH2 domain): showed specificities towards Lck SH2 domain; inhibitory activity against the other SH2 domains [1]: little or no inhibitory activity; joint swelling in Mtb-induced AA, therapeutic 1 regimen ([2]; 3 mg/kg i.p. on days 0, 1, 2, 3, 4 after Mtb, Lewis rats): significantly reduced the joint swellings in all rats; joint swelling in Mtb-induced AA, therapeutic 2 regimen ([2]; 3 mg/kg i.p. on days 10, 11, 12, 13 after Mtb, Lewis rats): significantly reduced the joint swellings in all rats; joint swelling in Mtb-induced AA, preventive regimen ([2]; 3 mg/kg i.p. on days -3, -2, -1, 0, Lewis rats): delayed the onset of joint swelling and reduced the severity of joint swellings; histological examination of joints ([2]; paws collected at the peak of the disease, AA rats): absence of damage to the cartilage and inflammatory cells; also recorded: No infiltration of inflammatory cells is observed in the joint space
